Results reported in article PMC6036117, “Structural Insight Into Conformational Changes Induced by ATP Binding in a Type III Secretion-Associated ATPase From Shigella flexneri” (Frontiers in Microbiology, 2018).
Read-outs that look alike come from different tables or passages of the source.

Experiments:
Spa47Δ1-83 = target: T1, Spa47Δ1-83 (Shigella flexneri, UniProt P0A1C1); assay: Isothermal titration calorimetry (ITC) of nucleotide binding to monomeric Spa47Δ1-83; conditions: for Ka (affinity constant) / ΔH (enthalpy variation) / ΔS (entropy variation): ATP without Mg2+, other ligands with Mg2+
T1 construct: The cDNA encoding Spa47Δ1-83 (84–430 aa) was amplified; 6xHis (pET28a, thrombin site) (N, cleaved yes); made in house; host or cells: E. coli Rosetta (DE3)
Experimental: An isothermal titration calorimetry (ITC) assay was performed with a MicroCalTM iTC200 calorimeter (MicroCal, USA) at 25°C. Both the protein and the ATP homolog were dissolved in the same buffer (20 mM Tris-HCl, pH = 8.0, 100 mM NaCl, 5 mM MgCl2). The concentrations of Spa47Δ1-83 and the mutants were between 0.03 and 0.04 mM. The concentration of ATP analogs was between 1 and 2 mM. Titration consisted of 18 consecutive 2-μl injections of ATP analogs with a 120-s interval between injections using a stir rate of 600 rpm. The dilution heat of the ligand was measured by adding ligand to a buffer solution under these conditions, and the injection schedule was identical to that used for the protein sample. For titration of the protein with ATP, MgCl2 was omitted in the buffer. Data acquisition and analysis were performed using Origin software. A single binding site model was used for nonlinear curve fitting. ITC experiments were repeated twice for each ligand.

[1] = target: subunit B of the A1A0 ATP synthase; design: method as in Kumar et al., 2009; conditions: ATP binding; ref Kumar et al., 2009; cited from earlier work
muscle creatine kinase = target: muscle creatine kinase; design: method as in Forstner et al., 1999; conditions: ATP binding; ref Forstner et al., 1999; cited from earlier work
p97 = target: p97; design: method as in Tang et al., 2010; conditions: ATP binding; ref Tang et al., 2010; cited from earlier work
[2] = ITC, 25°C, 20 mM Tris-HCl pH 8.0, 100 mM NaCl, 5 mM MgCl2 (MgCl2 omitted for ATP), single binding site model, Kd calculated as 1/Ka, read-out: Kd (apparent dissociation constant)

Structure (SMILES) | Kd (Spa47Δ1-83) [µM] | Ka (affinity constant) (Spa47Δ1-83; ITC, 25°C) | ΔH (enthalpy variation) (Spa47Δ1-83; ITC, 25°C) [kcal/mol] | ΔS (entropy variation) (Spa47Δ1-83; ITC, 25°C) [cal/mole/deg] | Kd (Spa47Δ1-83; ITC, 25°C, 20 mM Tris-HCl pH 8.0, 100 mM NaCl, 5 mM MgCl2 (MgCl2 omitted for ATP), single binding site model, Kd calculated as 1/Ka, listed as AMP-PNP, read-out: Kd (apparent dissociation constant)) [µM] | Kd (Spa47Δ1-83; [2]) [µM] | fold lower binding affinity than ATP and ATPγS (Spa47Δ1-83; ITC, relative to the affinity measured for ATP and ATPγS) | Kd [1] [µM] | Kd (muscle creatine kinase) [µM] | Kd (p97) [µM]
Nc1ncnc2c1ncn2[C@@H]1O[C@H](CO[P@](=O)(O)O[P@](=O)(O)O[P@@](=O)(O)S)[C@@H](O)[C@H]1O [ATPγS] | 21.2 ± 0.8 | 0.472±0.017 10^5. M^-1 | -8.16 ± 0.16 | -6.00 | – | – | – | – | – | –
Nc1ncnc2c1ncn2[C@@H]1O[C@H](COP(=O)(O)OP(=O)(O)NP(=O)(O)O)[C@@H](O)[C@H]1O [AMPPNP] | – | 0.031±0.001 10^5. M^-1 | -7.21 ± 0.11 | -8.20 | 322 ± 12.6 | 322 ± 12.6 | ~ 15 fold | – | – | –
Nc1ncnc2c1ncn2[C@@H]1O[C@H](COP(=O)(O)OP(=O)(O)O)[C@@H](O)[C@H]1O [ADP] | – | 0.067±0.003 10^5. M^-1 | -17.24 ± 3.82 | -40.30 | – | 150 ± 6.03 | – | – | – | –
Nc1ncnc2c1ncn2[C@@H]1O[C@H](COP(=O)(O)OP(=O)(O)OP(=O)(O)O)[C@@H](O)[C@H]1O [ATP] | – | 0.443±0.070 10^5. M^-1 | -4.99 ± 0.53 | 4.50 | – | 23.1 ± 3.44 | – | 22 | 4 to 16 | 0.89
